From US10392383B2, “3-(1H-benzo[d]imidazol-2-yl)-1H-pyrazolo[4,3-b]pyridines and therapeutic uses thereof” (Samumed, LLC, priority 2015, dated 2019)

Test system: primary human fibroblasts derived from IPF patients (LL29 cells) treated with TGF-β1
Test: Inhibition of the fibrotic process: αSMA staining in TGF-β1-treated LL29 fibroblasts
Type: cell-based
Settings: Fibroblast; for inhibition at 10 µM: LL29 fibroblasts treated with TGF-β1, Table 4, read-out: percent inhibition at 10 μM (given in parentheses for EC50 >10 μM); for EC50: 96 h, LL29 fibroblasts treated with TGF-β1 (20 ng/mL), 4 days, Table 4
Text: Representative compounds were screened using primary human fibroblasts (derived from IPF patients) treated with TGF-β1 to determine their ability to inhibit the fibrotic process.
Human Fibroblast Cell Culture: Primary human fibroblasts derived from IPF patients (LL29 cells) [^1Xiaoqiu Liu, et. al., “Fibrotic Lung Fibroblasts Show Blunted Inhibition by cAMP Due to Deficient cAMP Response Element-Binding Protein Phosphorylation”, Journal of Pharmacology and Experimental Therapeutics (2005), 315(2), 678-687; ^2Watts, K. L., et. al., “RhoA signaling modulates cyclin D1 expression in human lung fibroblasts; implications for idiopathic pulmonary fibrosis”, Respiratory Research (2006), 7(1), 88] were obtained from American Type Culture Collection (ATCC) and expanded in F12 medium supplemented with 15% Fetal Bovine Serum and Penicillin/Streptomycin.
Compound Screening: Each compound was dissolved in DMSO as a 10 mM stock and used to prepare compound source plates. Serial dilution (1:2, 11-point dose-response curves from 10 μM to […]) and compound transfer was performed using the ECHO 550 (Labcyte, Sunnyvale, Calif.) into 384-well clear bottom assay plates (Greiner Bio-One) with appropriate DMSO backfill for a final DMSO concentration of 0.1%. LL29 cells are plated at 1,500 cells/well in 80 μL/well F12 medium supplemented with 1% Fetal Bovine Serum. One hour after addition of the cells, TGF-β1 (Peprotech; 20 ng/mL) was added to the plates to induce fibrosis (ref. 1 and 2 above). Wells treated with TGF-β1 and containing DMSO were used as controls. Cells were incubated at 37° C. and 5% CO2 for 4 days. Following incubation for 4 days, SYTOX green nucleic acid stain (Life Technologies [Thermo Fisher Scientific]) was added to the wells at a final concentration of 1 μM and incubated at room temperature for 30 min. Cells were then fixed using 4% formaldehyde (Electron Microscopy Sciences), washed 3 times with PBS followed by blocking and permeabilization using 3% Bovine Serum Albumin (BSA; Sigma) and 0.3% Triton X-100 (Sigma) in PBS. Cells were then stained with antibody specific to α-smooth muscle actin (αSMA; Abcam) (ref. 1 and 2 above) in 3% Bovine Serum Albumin (BSA; Sigma) and 0.3% Triton X-100 (Sigma) in PBS, and incubated overnight at 4° C. Cells were then washed 3 times with PBS, followed by incubation with Alexa Flor-647 conjugated secondary antibody (Life Technologies [Thermo Fisher Scientific]) and DAPI at room temperature for 1 hour. Cells were then washed 3 times with PBS and plates were sealed for imaging. αSMA staining was imaged by excitation at 630 nm and emission at 665 nm and quantified using the Compartmental Analysis program on the CellInsight CX5 (Thermo Scientific). Dead or apoptotic cells were excluded from analysis based on positive SYTOX green staining. % of total cells positive for αSMA were counted in each well and normalized to the average of 11 wells treated with TGF-β1 on the same plate using Dotmatics' Studies Software. The normalized averages (fold change over untreated) of 3 replicate wells for each compound concentration were used to create dose-responses curves and EC50 values were calculated using non-linear regression curve fit in the Dotmatics' Studies Software. For EC50 of >10 μM, the percent inhibition at 10 μM is provided.

In the case of c1ccc2[nH]c(-c3n[nH]c4ccc(-c5cn[nH]c5)nc34)nc2c1 [Compound 651, 3-(1H-Benzo[d]imidazol-2-yl)-5-(1H-pyrazol-4-yl)-1H-pyrazolo[4,3-b]pyridine], the inhibition at 10 µM is reported as 0% and the EC50 is reported as > 10000 nM.

In the case of c1ccc2[nH]c(-c3n[nH]c4ccc(-c5cncc(OC6CCNCC6)c5)nc34)nc2c1 [Compound 656, 3-(1H-Benzo[d]imidazol-2-yl)-5-(5-(piperidin-4-yloxy)pyridin-3-yl)-1H-pyrazolo[4,3-b]pyridine], the inhibition at 10 µM is reported as 45.9% and the EC50 is reported as > 10000 nM.

In the case of Oc1cncc(-c2ccc3[nH]nc(-c4nc5ccccc5[nH]4)c3n2)c1 [Compound 661, 5-(3-(1H-Benzo[d]imidazol-2-yl)-1H-pyrazolo[4,3-b]pyridin-5-yl)pyridin-3-ol], the inhibition at 10 µM is reported as 30.3% and the EC50 is reported as > 10000 nM.

With O=C(CC1CCNCC1)Nc1cncc(-c2ccc3[nH]nc(-c4nc5c(-c6ccsc6)cccc5[nH]4)c3n2)c1 [Compound 673, 2-(Piperidin-4-yl)-N-(5-(3-(4-(thiophen-3-yl)-1H-benzo[d]imidazol-2-yl)-1H-pyrazolo[4,3-b]pyridin-5-yl)pyridin-3-yl)acetamide] the EC50 was 2780 nM.

Cc1ncc(-c2ccc3[nH]nc(-c4nc5c(-c6ccoc6)cccc5[nH]4)c3n2)n1C [Compound 685, 5-(1,2-Dimethyl-1H-imidazol-5-yl)-3-(4-(furan-3-yl)-1H-benzo[d]imidazol-2-yl)-1H-pyrazolo[4,3-b]pyridine] gave an EC50 of 5040 nM.

For c1cc(-c2ccoc2)c2nc(-c3n[nH]c4ccc(-c5cncc(OCCN6CCCC6)c5)nc34)[nH]c2c1 [Compound 690, 3-(4-(Furan-3-yl)-1H-benzo[d]imidazol-2-yl)-5-(5-(2-(pyrrolidin-1-yl)ethoxy)pyridin-3-yl)-1H-pyrazolo[4,3-b]pyridine], the EC50 was 2440 nM.

For COc1cncc(-c2ccc3[nH]nc(-c4nc5c(-c6ccoc6)cccc5[nH]4)c3n2)c1 [Compound 692, 3-(4-(Furan-3-yl)-1H-benzo[d]imidazol-2-yl)-5-(5-methoxypyridin-3-yl)-1H-pyrazolo[4,3-b]pyridine], the EC50 was 1410 nM.

Cn1cc(-c2ccc3[nH]nc(-c4nc5c(-c6cccs6)cccc5[nH]4)c3n2)cn1 [Compound 700, 5-(1-Methyl-1H-pyrazol-4-yl)-3-(4-(thiophen-2-yl)-1H-benzo[d]imidazol-2-yl)-1H-pyrazolo[4,3-b]pyridine] gave an EC50 of 391 nM.

Work on Cc1ccc(-c2cccc3[nH]c(-c4n[nH]c5ccc(C6=CCNCC6)nc45)nc23)s1 [Compound 730, 3-(4-(5-Methylthiophen-2-yl)-1H-benzo[d]imidazol-2-yl)-5-(1,2,3,6-tetrahydropyridin-4-yl)-1H-pyrazolo[4,3-b]pyridine] yielded an EC50 of 1340 nM.

In the case of Cc1ccc(-c2cccc3[nH]c(-c4n[nH]c5ccc(-c6cncc(OC7CCCCC7)c6)nc45)nc23)s1 [Compound 735, 5-(5-(Cyclohexyloxy)pyridin-3-yl)-3-(4-(5-methylthiophen-2-yl)-1H-benzo [d]imidazol-2-yl)-1H-pyrazolo[4,3-b]pyridine], the EC50 is reported as 1130 nM.

Cn1cc(-c2ccc3[nH]nc(-c4nc5c(-c6cc(F)cc(CNS(C)(=O)=O)c6)cccc5[nH]4)c3n2)cn1 [Compound 764, N-(3-Fluoro-5-(2-(5-(1-methyl-1H-pyrazol-4-yl)-1H-pyrazolo[4,3-b]pyridin-3-yl)-1H-benzo[d]imidazol-4-yl)benzyl)methanesulfonamide] showed an EC50 of 1990 nM.

Work on CS(=O)(=O)NCc1cc(F)cc(-c2cccc3[nH]c(-c4n[nH]c5ccc(-c6cncc(NC(=O)CC7CCNCC7)c6)nc45)nc23)c1 [Compound 769, N-(5-(3-(4-(3-Fluoro-5-(methylsulfonamidomethyl)phenyl)-1H-benzo[d]imidazol-2-yl)-1H-pyrazolo[4,3-b]pyridin-5-yl)pyridin-3-yl)-2-(piperidin-4-yl)acetamide] yielded an EC50 of 3250 nM.

Work on Cc1ncc(-c2ccc3[nH]nc(-c4nc5c(-c6cc(F)cc(NCCN(C)C)c6)cccc5[nH]4)c3n2)n1C [Compound 781, N^1-(3-(2-(5-(1,2-Dimethyl-1H-imidazol-5-yl)-1H-pyrazolo[4,3-b]pyridin-3-yl)-1H-benzo[d]imidazol-4-yl)-5-fluorophenyl)-N^2,N^2-dimethylethane-1,2-diamine] yielded an EC50 of 917 nM.

Molecule CN(C)CCNc1cc(F)cc(-c2cccc3[nH]c(-c4n[nH]c5ccc(-c6cncc(OCCN7CCCC7)c6)nc45)nc23)c1 [Compound 786, N^1-(3-Fluoro-5-(2-(5-(5-(2-(pyrrolidin-1-yl)ethoxy)pyridin-3-yl)-1H-pyrazolo[4,3-b]pyridin-3-yl)-1H-benzo[d]imidazol-4-yl)phenyl)-N^2,N^2-dimethylethane-1,2-diamine] has an EC50 of 1770 nM.

CN(C)CCNc1cc(F)cc(-c2cccc3[nH]c(-c4n[nH]c5ccc(-c6cncc(OCc7ccccc7)c6)nc45)nc23)c1 [Compound 790, N^1-(3-(2-(5-(5-(Benzyloxy)pyridin-3-yl)-1H-pyrazolo[4,3-b]pyridin-3-yl)-1H-benzo[d]imidazol-4-yl)-5-fluorophenyl)-N^2,N^2-dimethylethane-1,2-diamine] was tested, and the EC50 was 798 nM.

CN(C)CCNc1cc(F)cc(-c2cccc3[nH]c(-c4n[nH]c5ccc(-c6cnccn6)nc45)nc23)c1 [Compound 792, N^1-(3-Fluoro-5-(2-(5-(pyrazin-2-yl)-1H-pyrazolo[4,3-b]pyridin-3-yl)-1H-benzo[d]imidazol-4-yl)phenyl)-N^2,N^2-dimethylethane-1,2-diamine] was tested, and the EC50 was 1900 nM.

With COc1cccc(-c2cccc3[nH]c(-c4n[nH]c5ccc(-c6cncc(NC(=O)CC(C)(C)C)c6)nc45)nc23)c1 [Compound 1006, N-(5-(3-(4-(3-methoxyphenyl)-1H-benzo[d]imidazol-2-yl)-1H-pyrazolo[4,3-b]pyridin-5-yl)pyridin-3-yl)-3,3-dimethylbutanamide] the inhibition at 10 µM was 32.2% and the EC50 was > 10000 nM.

COc1cccc(-c2cccc3[nH]c(-c4n[nH]c5ccc(-c6cncc(NC(=O)C7CCCCC7)c6)nc45)nc23)c1 [Compound 1012, N-(5-(3-(4-(3-Methoxyphenyl)-1H-benzo[d]imidazol-2-yl)-1H-pyrazolo[4,3-b]pyridin-5-yl)pyridin-3-yl)cyclohexanecarboxamide] was tested, and the inhibition at 10 µM was 36.9% and the EC50 was > 10000 nM.

COc1cccc(-c2cccc3[nH]c(-c4n[nH]c5ccc(-c6cn[nH]c6)nc45)nc23)c1 [Compound 1020, 3-(4-(3-Methoxyphenyl)-1H-benzo[d]imidazol-2-yl)-5-(1H-pyrazol-4-yl)-1H-pyrazolo[4,3-b]pyridine] gave an EC50 of 372 nM.

With COc1cccc(-c2cccc3[nH]c(-c4n[nH]c5ccc(-c6cncc(OC7CCNCC7)c6)nc45)nc23)c1 [Compound 1025, 3-(4-(3-Methoxyphenyl)-1H-benzo[d]imidazol-2-yl)-5-(5-(piperidin-4-yloxy)pyridin-3-yl)-1H-pyrazolo[4,3-b]pyridine] the EC50 was 2110 nM.

Molecule COc1cccc(-c2cccc3[nH]c(-c4n[nH]c5ccc(-c6cncc(O)c6)nc45)nc23)c1 [Compound 1030, 5-(3-(4-(3-Methoxyphenyl)-1H-benzo[d]imidazol-2-yl)-1H-pyrazolo[4,3-b]pyridin-5-yl)pyridin-3-ol] has an EC50 of 915 nM.

Molecule NC1CN(c2cncc(-c3ccc4[nH]nc(-c5nc6c(-c7ccc(Cl)s7)cccc6[nH]5)c4n3)n2)C1 [Compound 1068, 1-(6-(3-(4-(5-Chlorothiophen-2-yl)-1H-benzo[d]imidazol-2-yl)-1H-pyrazolo [4,3-b]pyridin-5-yl)pyrazin-2-yl)azetidin-3-amine] has an EC50 of 1710 nM.
